{"source": "patent US10117946B2", "about": "“Self-assembling ultrashort peptides modified with bioactive agents by click chemistry” (Agency for Science, Technology and Research, priority 2012, dated 2018)", "key": {"[1]": {"system": "SW480 (colon carcinoma) cells", "assay": "Cytotoxicity, colorimetric microculture assay (MTS assay)", "assay_type": "cell-based, human", "details": "96 h exposure", "method": "(§1) Cytotoxicity of all synthesized compounds was evaluated on two human derived cancer cell lines namely HeLa (cervical carcinoma) and SW480 (colon carcinoma). 4T1 mouse breast cancer cells were also used for evaluation. Cells were first treated with different concentrations of the test compounds and incubated for 96 h at 37° C. Subsequently, the cell viability was measured by means of a colorimetric microculture assay (MTS assay).\n(§2) Human cervical carcinoma cell line HeLa, human colon carcinoma cell line SW480 and mouse breast cancer cell line 4T1 were purchased from the American Type Culture Collection (Manassas, Va., USA). The cell lines were cultured in DME medium (Biopolis shared facilities, A*STAR, SG) supplemented with 10% heat inactivated fetal bovine serum and 1% of mixture of penicillin and streptomycin (Invitrogen, CA, U.S.A). The cells were maintained in a 75 mL cell culture flask (Nunc) at 37° C. in a humidified incubator with 95% air and 5% CO2.\n(§3) Cytotoxicity was determined by means of a colorimetric microculture assay (MTs assay, MTS=[…]) For this purpose, HeLa, SW480, and 4T1 cells were harvested from culture flasks by trypsinization and seeded into 96-well microculture plates in cell densities of 3.5×10^3 cells/well. The cells were allowed to attach for 8 h. Subsequently, cells were exposed to serial dilutions of the test compounds in 150 μL/well complete culture medium for 96 h. Then 25 uL of CellTiter 96® Aqueous one solution reagent was added to the cells, followed by incubation for 2 h at 37° C. After incubation, the absorbance was measured at a wavelength of 499 nm using a microplate reader. The quantity of vital cells was expressed in terms of T/C values in comparison to untreated control microcultures, and 50% inhibitory concentrations (IC50) were calculated from concentration-effect curves by a nonlinear curve fit using Origin Lab 7.5."}, "[2]": {"system": "HeLa (cervical carcinoma) cells", "assay": "Cytotoxicity, colorimetric microculture assay (MTS assay)", "assay_type": "cell-based, human", "details": "96 h exposure", "method": "as §1, §2, §3"}, "[3]": {"system": "4T1 mouse breast cancer cells", "assay": "Cytotoxicity, colorimetric microculture assay (MTS assay)", "assay_type": "cell-based", "details": "96 h exposure", "method": "as §1, §2\nCytotoxicity was determined by means of a colorimetric microculture assay (MTs assay, MTS=[…]) For this purpose, HeLa, SW480, and 4T1 cells were harvested from culture flasks by trypsinization and seeded into 96-well microculture plates in cell densities of 3.5×10^3 cells/well. […] After incubation, the absorbance was measured at a wavelength of 499 nm using a microplate reader. […]"}, "SW480 cells": {"system": "SW480 cells", "assay": "Cell cycle analysis (propidium iodide, flow cytometry)", "assay_type": "cell-based, human", "details": "10 μM, 96 h", "method": "(§4) To further characterize the in vitro efficacy of 3-6, cell cycle analysis and measurement of caspase activity was conducted after incubation with the drug candidates. […] Oxaliplatin coordinates to DNA nucleotides, preventing the cell from crossing the DNA damage check point. […] This is very close to the oxaliplatin control were about 55% of the cells were in a G2/M arrest. […] The fact that all compounds were associated with an increase in the G2/M phase proves that compound 3-6 is able to bind to DNA in the tested cells, although the effect is not as pronounced as in the oxaliplatin control.\n(§5) Cells (3×10^6 cells) were seeded into 10 cm petridishes and allowed to recover for 24 h. The medium was exchanged to serum free DME medium and the cells were allowed to synchronize for 24 h. The medium was later changed to DME medium containing 10% heat inactivated fetal bovine serum and 1% of mixture of penicillin and streptomycin (Invitrogen, CA, U.S.A). Cells were exposed to 10 μM of the test compounds for 96 h. Control and treated cells were collected, washed with PBS, fixed in 70% ice-cold ethanol, and stored at −20° C. To determine cell cycle distributions, cells were transferred to a PBS solution, incubated with 10 μg/mL RNase A for 30 min at 37° C., and treated with 5 μg/mL propidium iodide for 30 min. Fluorescence of individual cells was measured by flow cytometry, […]"}, "4T1 cells": {"system": "4T1 cells", "assay": "Cell cycle analysis (propidium iodide, flow cytometry)", "assay_type": "cell-based, mouse", "details": "10 μM, 96 h", "method": "as §4, §5"}, "[4]": {"assay": "In vivo study, body weight comparison of treatment groups", "parameters": "species or system mouse", "excerpt": "(§6) Female BALB/c mice were divided into four groups for treatment (PBS group and Ac-LIVAGK-NH2 (SEQ ID NO. 16 acylated and amidated) hydrogel group as negative controls, oxaliplatin as positive control and test compound 3 as a hybrid hydrogel with Ac-LIVAGK-NH2 (SEQ ID NO. 16 acylated and amidated)). Each group comprised of 9 mice. Tumour growth was initiated via a subcutaneous injection of 1 million 4T1 cells into the mouse flank. Seven days after cell injection, compound 3 was directly injected into the tumor using Ac-LIVAGK-NH2 (SEQ ID NO. 16 acylated and amidated), its parent peptide, as gel matrix. The same volume was accordingly injected into the other three groups. As a first dose 15 mg/kg oxaliplatin was used, which is equivalent to 44 mg/kg of compound 3. A re-injection was performed on day 21 of the experiment. The animals were sacrificed on day 28 and final tumor size was measured.\nThe same holds true for day 21 of the experiment. […] This was confirmed by a significant weight difference between the oxaliplatin group and the group treated with compound 3. Therefore, reinjection on day 21 involved only half the initial dose.\n(§7) Adult female Balb/c mice used in this study (weight 20 g; aged 6-8 weeks) were provided by Biological Resource Center (BRC), A*Star, Biopolis, Singapore. For tumor establishment, 1×10^6 mouse 4T1 breast cancer cells were injected subcutaneously into the flank of Balb/c mice (designated as day 0). To investigate the effect of the mixture of Oxaliplatin and hydrogel, the tumor-inoculated animals were divided into 4 groups (n=9 per group) on day 7 post-tumor inoculation and received an intratumor injection of sample solutions: phosphate buffered saline (PBS), Ac-LIVAGK-NH2 (SEQ ID NO. 16 acylated and amidated) (12.5 mg/mL) oxaliplatin (15 mg/kg), 3 (44 mg/kg) and Ac-LIVAGK-NH2 (SEQ ID NO. 16 acylated and amidated) (12.5 mg/mL). 100 μL of each sample were injected directly into the tumor. The hydrogels were prepared prior to injection by dissolving the peptide in 1×PBS and vortexing for 1 min. The sample containing 3 was prepared in a similar manner; 3 was dissolved in 1×PBS and the resulting solution was added to the peptide and vortexed for 1 min. A solid hydrogel was observed about 10 min after sample preparation, to allow in situ gelation inside the tumor.\n(§8) Data are represented as mean±SE. […] A P-value of <0.05 was considered to be statistically significant."}, "[5]": {"system": "4T1 breast cancer tumor in BALB/c mice", "assay": "In vivo therapeutic efficacy, intratumoral injection, tumor volume", "parameters": "species or system mouse", "details": "for Tumor volume, Significant? vs. PBS, Day 14: Holm-Sidak, overall significance level 0.05, comparator PBS group", "excerpt": "as §6, §7\nTumor volume was determined by measurement with an electronic digital vernier caliper. Readings were taken once a week until day 28 post-tumor inoculation. The ellipsoid volume of the tumor (mm^3) was then calculated using the formula: Volume=(Width)×(Length)×(height)×π/6.\nas §8"}, "[6]": {"assay": "Gelation ability in water (vortexing, left to stand overnight)", "assay_type": "physicochemical", "method": "To test the gelation ability of compounds 3-8, they were dissolved in water by vortexing and left to stand overnight. […] In contrast, the alkyne-derived peptide P1 gelled in water at a concentration of 30 mg/mL, which is close to the minimal gelation concentration of its parent peptide SEQ ID NO 16 Ac-LIVAGK-NH2 (Ac-LK6-NH2). […] We assume, that the derivatization of the peptides with cisplatin or oxaliplatin and a bulky triazole group interferes with their self-assembly by changing the lipophilicity of the N-terminus of the peptide. However, stable hybrid gels could be formed with up to 40 wt % loading when the parent peptide was used as a matrix."}, "[7]": {"details": "Holm-Sidak, 0.05, comparator Ac-LK6-NH2 hydrogel group"}, "[8]": {"details": "Holm-Sidak, 0.05, comparator PBS group"}, "[9]": {"details": "comparator Ac-LK6-NH2 hydrogel group"}, "[10]": {"details": "Holm-Sidak pairwise comparison, comparator Ac-LK6-NH2 hydrogel group"}, "[11]": {"details": "Holm-Sidak pairwise comparison, comparator PBS group"}}, "note": "Several values for one entry are separate records, joined by “and”; a condition that tells them apart may be missing. Identical values can stand only once."}
{"molecule": "N.N.[Cl][Pt][Cl]", "note": "[cisplatin]", "values": [{"measurement": "IC50", "setting": "[1]", "value": "4000 ± 2500", "unit": "nM"}, {"measurement": "IC50", "setting": "[2]", "value": "620 nM and 1000 nM"}, {"measurement": "IC50", "setting": "[3]", "value": "1500 ± 600", "unit": "nM"}]}
{"molecule": "O=C1[O][Pt]2([NH][C@@H]3CCCC[C@H]3[NH]2)[O]C1=O", "note": "[oxaliplatin]", "values": [{"measurement": "IC50", "setting": "[1]", "value": "500 nM and 470 nM"}, {"measurement": "IC50", "setting": "[2]", "value": "2000 ± 800", "unit": "nM"}, {"measurement": "IC50", "setting": "[3]", "value": "1800 ± 500", "unit": "nM"}, {"measurement": "apoptotic cells", "setting": "SW480 cells", "value": "no apoptotic cells"}, {"measurement": "cells arrested in G2/M", "setting": "SW480 cells", "value": "about 80%"}, {"measurement": "apoptotic cells", "setting": "4T1 cells", "value": "about 30%"}, {"measurement": "cells arrested in G2/M", "setting": "4T1 cells", "value": "about 55%"}, {"measurement": "Weight, Significant? vs. Ac-LK6-NH2, Day 20", "setting": "[4]; [7]", "value": "Yes"}, {"measurement": "Weight, Significant? vs. Ac-LK6-NH2, Day 28", "setting": "[4]; [7]", "value": "Yes"}, {"measurement": "Weight, Significant? vs. PBS, Day 20", "setting": "[4]; [8]", "value": "Yes"}, {"measurement": "Weight, Significant? vs. PBS, Day 28", "setting": "[4]; [8]", "value": "Yes"}, {"measurement": "Weight, Mean, Day 20", "setting": "[4]; body weight of BALB/c mice, day 20, injection day 7, n=9", "value": 19.754}, {"measurement": "Weight, Mean, Day 28", "setting": "[4]; body weight of BALB/c mice, day 28, re-injection day 21 with half dose, n=9", "value": 20.593}, {"measurement": "Weight, Diff of Means vs. Ac-LK6-NH2, Day 20", "setting": "[4]; [9]", "value": 2.831}, {"measurement": "Weight, Diff of Means vs. Ac-LK6-NH2, Day 28", "setting": "[4]; [9]", "value": 1.982}, {"measurement": "Weight, Diff of Means vs. PBS, Day 20", "setting": "[4]; comparator PBS group", "value": 2.813}, {"measurement": "Weight, Diff of Means vs. PBS, Day 28", "setting": "[4]; comparator PBS group", "value": 1.742}, {"measurement": "effect on the mice at the administered dose, compared to conjugate 3", "setting": "[4]; oxaliplatin 15 mg/kg intratumoral, confirmed by significant weight difference", "value": "significant deleterious effect"}, {"measurement": "Tumor volume, Diff of Means vs. Ac-LK6-NH2, Day 14", "setting": "[5]; [10]", "value": 101.218, "unit": "mm^3"}, {"measurement": "Tumor volume, Diff of Means vs. Ac-LK6-NH2, Day 28", "setting": "[5]; [10]", "value": 1150.053, "unit": "mm^3"}, {"measurement": "Tumor volume, Diff of Means vs. LK6, Day 21", "setting": "[5]; Holm-Sidak pairwise comparison, comparator LK6 hydrogel group", "value": 487.488, "unit": "mm^3"}, {"measurement": "Tumor volume, Diff of Means vs. PBS, Day 14", "setting": "[5]; [11]", "value": 253.590, "unit": "mm^3"}, {"measurement": "Tumor volume, Diff of Means vs. PBS, Day 21", "setting": "[5]; [11]", "value": 580.470, "unit": "mm^3"}, {"measurement": "Tumor volume, Diff of Means vs. PBS, Day 28", "setting": "[5]; [11]", "value": 855.616, "unit": "mm^3"}, {"measurement": "Tumor volume, Significant? vs. Ac-LK6-NH2, Day 14", "setting": "[5]; [7]", "value": "No"}, {"measurement": "Tumor volume, Significant? vs. Ac-LK6-NH2, Day 28", "setting": "[5]; [7]", "value": "Yes"}, {"measurement": "Tumor volume, Significant? vs. LK6, Day 21", "setting": "[5]; Holm-Sidak, 0.05, comparator LK6 hydrogel group", "value": "Yes"}, {"measurement": "Tumor volume, Significant? vs. PBS, Day 21", "setting": "[5]; [8]", "value": "Yes"}, {"measurement": "Tumor volume, Significant? vs. PBS, Day 28", "setting": "[5]; [8]", "value": "Yes"}, {"measurement": "Tumor volume, Significant? vs. PBS, Day 14", "setting": "[5]", "value": "Significant tumor reduction"}, {"measurement": "Tumor volume, Significant? vs. PBS, Day 14", "setting": "[5]; listed as Oxaliplatin", "value": "Yes"}, {"measurement": "Tumor volume, Mean, Day 7", "setting": "[5]; day 7 post-tumor inoculation = day of first intratumoral injection (baseline), n=9", "value": 61.938, "unit": "mm^3"}, {"measurement": "Tumor volume, Mean, Day 14", "setting": "[5]; day 14, intratumoral injection day 7: oxaliplatin 15 mg/kg or 3 44 mg/kg in Ac-LIVAGK-NH2 gel, n=9", "value": 135.101, "unit": "mm^3"}, {"measurement": "Tumor volume, Mean, Day 21", "setting": "[5]; day 21, intratumoral injection day 7: oxaliplatin 15 mg/kg or 3 44 mg/kg in Ac-LIVAGK-NH2 gel, n=9", "value": 96.493, "unit": "mm^3"}, {"measurement": "Tumor volume, Mean, Day 28", "setting": "[5]; day 28, injection day 7, re-injection day 21 with half the initial dose, n=9", "value": 250.650, "unit": "mm^3"}]}
{"molecule": "P1: alkyne-derived (propiolic acid functionalized) peptide; parent peptide Ac-LIVAGK-NH2 (also: propiolic acid alkyne functionalization, site not given here) [Compound P1]", "values": [{"measurement": "concentration at which the peptide gelled in water", "setting": "[6]", "value": 30000, "unit": "µg/mL"}]}
